Test [1] deals with MCF-7 breast tumour cell line. Description: Tumor cell proliferation assay (CellTiter-Glo, 72 h), MCF-7. The conditions noted are these: Homo sapiens, MCF7, 72 h drug exposure; for inhibition at 1.67 µM: read-out: MCF-7 median inhibition at 1.67 μM (%). Type of test: cell-based. On the procedure:
Biological Assay 4.0: Tumor Cell Proliferation Assays
Compounds were tested in a cell-based assay that measures the capacity of the compounds to inhibit tumour cell proliferation following a 72 h drug exposure. Cell viability is determined using CellTiter-Glow® (CTG, Promega, cat# G7571/2/3). The CellTiter-Glo® Luminescent Cell Viability Assay is a homogeneous method to determine the number of viable cells in culture. Detection is based on using the luciferase reaction to measure the amount of ATP from viable cells. The amount of ATP in cells correlates with cell viability. Within minutes after a loss of membrane integrity, cells lose the ability to synthesize ATP, and endogenous ATPases destroy any remaining ATP; thus the levels of ATP fall precipitously.
Cells were plated at 3000-5000 cells/well (depending on the cell lines) in 90 μL growth medium on MTPs (Corning; #3603, black plate, clear flat bottom). For each cell line assayed, cells were plated onto a separate plate for determination of […] at t=0 hour and t=72 hour time points. Following overnight incubation at 37° C., chemiluminescence values for the t=0 samples were determined after adding 10 μl medium and 100 μl CTG solution according to manufacture protocol. Plates for the t=72 hour time points were treated with compounds diluted into growth medium at ten times final concentration added in 10 μL to the cell culture plate. Cells were then incubated for 72 hours at 37° C. Chemiluminescence values for the t=72 hour samples were determined. […] Experiments were controlled using a reference compound as standard.
Preferred compounds of the present invention show in this assay an inhibition of cell growth of cell lines such as the KPL-4 breast cancer cell line and the MCF-7 breast tumour cell line ([…], hormone dependent) with a median IC50 of <10 μM, more preferably, median IC50≦1 μM.

In test [2] the test system is p-4E-BP1 at T70. Nature of the test: Cellular p-4E-BP1-T70 assay in KPL-4 cells. It is filed as cell-based. The conditions noted are these: Homo sapiens, KPL4; KPL-4 breast tumour cell line, 2 hours treatment; read-out: P4EBP1-T70 median IC50. As for the experimental part: The molecular mechanism of action was investigated in a set of experiments to assess the inhibition of the PI3K-AKT-mTOR pathway in responsive cell lines such as KPL-4 breast tumour cell line (PIK3CA^H1047R, HER2^O/E and hormone independent). The phospho-substrates of PI3K-AKT-mTOR axis were used as the readouts to reflect pathway inhibition. Cells were seeded at 60-80% confluency per well in 96-well cell culture plates. After overnight incubation at 37° C. 5% CO2, cells were treated with compounds and vehicle at 37° C. for 2 hours. Thereafter, cells were lysed in 150 μl lysis buffer and the levels of phospho-AKT at T308 and S473 and p-4E-BP1 at T70 sites were determined with the corresponding AlphaScreen® SureFire® assay kits (Perkin Elmer: 4E-BP1 Assay Kit Cat # TRG4E2S10K; Akt 1/2/3 p-Ser 473 #TGRA4S500 and Akt 1/2/3 p-Thr 308 #TGRA3S500 as well as IgG detection Kit #6760617M) as described in the manuals. All measurements where at least done in duplicates and confirmed by independent repetition. Alternatively pAKT-S473 was measured using the “Akt Duplex” of the MULTI-SPOT® Assay System (Fa. Meso Scale Discovery, Cat# N41100B-1) following manufacturers instructions. Each assay used 20 μg of protein extract and measured total AKT and p-AKT content simultaneously in one well. All measurements where at least done in duplicates and confirmed by independent repetition. Values for P-AKT are expressed as percentage of P-AKT level compared to total-AKT content of the extracts.

Test [3] addresses His-tagged human recombinant kinase full-length Akt2 (Homo sapiens (Human), UniProt P31751). Description: Akt2 kinase assay (TR-FRET). It is filed as biochemical. The following applies: 10 μM ATP, read-out: Akt2, median IC50. From the text:
Biological Assay 2.0: Akt2 Kinase Assay
Akt2 inhibitory activity of compounds of the present invention was quantified employing the Akt2 TR-FRET assay as described in the following paragraphs.
His-tagged human recombinant kinase full-length Akt2 expressed in insect cells and activated by PDK1 was purchased from Invitrogen (part number PV 3975). As substrate for the kinase reaction the biotinylated peptide biotin-Ahx-KKLNRTLSFAEPG (C-terminus in amide form) was used which can be purchased e.g. from the company Biosynthan GmbH (Berlin-Buch, Germany).
For the assay 50 nl of a 100 fold concentrated solution of the test compound in DMSO was pipetted into a black low volume 384 well microtiter plate (Greiner Bio-One, Frickenhausen, Germany), 2 μl of a solution of Akt2 in assay buffer [50 mM TRIS/HCl pH 7.5, 5 mM MgCl2, 1 mM dithiothreitol, 0.02% (v/v) Triton X-100 (Sigma)] were added and the mixture was incubated for 15 min at 22° C. to allow prebinding of the test compounds to the enzyme before the start of the kinase reaction. Then the kinase reaction was started by the addition of 3 μl of a solution of adenosine-tri-phosphate (ATP, 16.7 μM=>final conc. in the 5 μl assay volume is 10 μM) and substrate (1.67 μM=>final conc. in the 5 μl assay volume is 1 μM) in assay buffer and the resulting mixture was incubated for a reaction time of 60 min at 22° C. The concentration of Akt2 in the assay was adjusted depending of the activity of the enzyme lot and was chosen appropriate to have the assay in the linear range, typical enzyme concentrations were in the range of about 0.2 ng/μl (final conc. in the 5 μl assay volume).
The reaction was stopped by the addition of 5 μl of a solution of HTRF detection reagents (200 nM streptavidine-XL665 [Cisbio] and 1.5 nM anti-phosho-Serine antibody [Millipore, cat. #35-001] and 0.75 nM LANCE Eu-W 1024 labeled anti-mouse IgG antibody [Perkin Elmer]) in an aqueous EDTA-solution (100 mM EDTA, 0.1% (w/v) bovine serum albumin in 50 mM HEPES/NaOH pH 7.5).
The resulting mixture was incubated 1 h at 22° C. to allow the binding of the biotinylated phosphorylated peptide to the streptavidine-XL665 and the antibodies. Subsequently the amount of phosphorylated substrate was evaluated by measurement of the resonance energy transfer from the anti-mouse-IgG-Eu-Chelate to the streptavidine-XL665. Therefore, the fluorescence emissions at 620 nm and 665 nm after excitation at 350 nm was measured in a TR-FRET reader, e.g. a Rubystar (BMG Labtechnologies, Offenburg, Germany) or a Viewlux (Perkin-Elmer). The ratio of the emissions at 665 nm and at […] was taken as the measure for the amount of phosphorylated substrate. The data were normalised (enzyme reaction without inhibitor=0% inhibition, all other assay components but no enzyme=100% inhibition).
On the technique in general: Time-resolved FRET reads energy transfer from a long-lived donor to a nearby acceptor.

Each structure is given as a SMILES string.

His-tagged human recombinant kinase full-length Akt2, sequence (P31751 whole entry): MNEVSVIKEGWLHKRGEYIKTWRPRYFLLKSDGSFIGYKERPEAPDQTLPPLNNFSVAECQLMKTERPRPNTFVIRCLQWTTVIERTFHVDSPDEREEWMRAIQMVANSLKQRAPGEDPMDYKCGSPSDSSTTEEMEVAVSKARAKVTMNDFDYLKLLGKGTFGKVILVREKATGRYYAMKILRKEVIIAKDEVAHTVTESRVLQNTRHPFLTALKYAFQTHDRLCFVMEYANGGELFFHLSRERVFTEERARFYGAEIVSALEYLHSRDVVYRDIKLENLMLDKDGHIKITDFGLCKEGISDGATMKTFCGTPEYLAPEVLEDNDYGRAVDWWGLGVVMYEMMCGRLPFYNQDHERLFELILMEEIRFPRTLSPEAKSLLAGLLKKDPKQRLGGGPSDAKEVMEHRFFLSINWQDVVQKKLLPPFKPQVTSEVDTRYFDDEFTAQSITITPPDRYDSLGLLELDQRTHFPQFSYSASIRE

As to `Cc1cn2c(-c3ccccc3)c(-c3ccc(C4(N)CCC4)cc3)nc2c(C)n1` [Example 2, 1-[4-(6,8-Dimethyl-3-phenylimidazo[1,2-a]pyrazin-2-yl)phenyl]-cyclobutanamine], the inhibition at 1.67 µM in test [1] was 70.8%. Besides, the values for the IC50 in test [1], in test [2] and in test [3] were 720 nM, 1100 nM and 220 nM, respectively.

As for `CCc1cn2c(-c3ccccc3)c(-c3ccc(C4(N)CCC4)cc3)nc2c(OC)n1` [Example 4, 1-[4-(6-Ethyl-8-methoxy-3-phenylimidazo[1,2-a]pyrazin-2-yl)phenyl]cyclobutanamine], in test [1], the inhibition at 1.67 µM was found to be 72.4%. The IC50 in test [1] stood at 850 nM; in test [2], 380 nM; in test [3] it was 34 nM.

In the case of `COC(=O)c1cn2c(-c3ccccc3)c(-c3ccc(C4(N)CCC4)cc3)nc2c(OC)n1` [Example 7, Methyl 2-[4-(1-aminocyclobutyl)phenyl]-8-methoxy-3-phenylimidazo[1,2-a]pyrazine-6-carboxylate], the inhibition at 1.67 µM in test [1] turned out to be 72.3%. The IC50 worked out at 420 nM in test [1], 43 nM in test [2] and 86 nM in test [3].

In the case of `COc1nc(Br)cn2c(-c3ccccc3)c(-c3ccc(C4(N)CCC4)cc3)nc12` [Example 3, 1-[4-(6-Bromo-8-methoxy-3-phenylimidazo[1,2-a]pyrazin-2-yl)phenyl]cyclobutanamine], the inhibition at 1.67 µM in test [1] was 46.2%. Moreover, the figures for the IC50 in test [1], in test [2] and in test [3] were 1700 nM, 1400 nM and 33 nM, respectively.

With `COc1nc(C(N)=O)cn2c(-c3ccccc3)c(-c3ccc(C4(N)CCC4)cc3)nc12` [Example 8, 2-[4-(1-Aminocyclobutyl)phenyl]-8-methoxy-3-phenylimidazo[1,2-a]pyrazine-6-carboxamide], in test [1], the inhibition at 1.67 µM came out at 73.1%. Also, the IC50 was 270 nM in test [1], 18 nM in test [2] and 14 nM in test [3].

Regarding `NC(=O)c1cn2c(-c3ccccc3)c(-c3ccc(C4(N)CCC4)cc3)nc2cn1` [Example 6, 2-[4-(1-Aminocyclobutyl)phenyl]-3-phenylimidazo[1,2-a]pyrazine-6-carboxamide], in test [1], the inhibition at 1.67 µM amounted to 57.3%. For the same compound, the IC50 is 1100 nM in test [1], 18 nM in test [2] and 97 nM in test [3].

One may read the inhibition as how much of the control response was suppressed. In general, IC50 refers to the concentration at which inhibition is half-maximal.

The values are drawn from US9260435B2, “Substituted imidazopyrazines as Akt kinase inhibitors” (Bayer Intellectual Property GmbH, priority 2012, dated 2016).
